From patent US20060069132A1, “Azolecarboxamide herbicides” (priority 2004, published 2006)

How the values were obtained:
morningglory = test: Test B pre-/postemergence herbicide test; type: in vivo, Ipomoea coccinea; conditions: for Morningglory plant response rating: postemergence, scale 0 (no effect) to 100 (complete control)
In short: (§1)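 Plants compared with untreated controls 13–15 days post-treatment and given a visual 0–100 injury score. Applications: preemergence to seeds; postemergence at 1- to 4-leaf (2–18 cm); paddy species flooded, 2-leaf stage. Vehicle non-phytotoxic, surfactant included.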

barnyardgrass [1] = test: Test C flooded paddy test; type: in vivo, Echinochloa crus-galli
In short: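 Weeds and wheat were sprayed after emergence, at a height of 2 to 18 cm (1–4 leaves), and paddy barnyardgrass was flooded and treated at two leaves. Assessment took place 12–14 days later in the greenhouse on a 0-to-100 visual control scale. A dash means no result was obtained.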

[2] = tested on: smallflower umbrella sedge; test: Test C flooded paddy test; type: in vivo, Cyperus difformis
wild oat = test: Test B postemergence herbicide test; type: in vivo, Avena fatua; conditions: postemergence, visual rating, scale 0 (no effect) to 100 (complete control)
In short: (§2)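 After treating 2-leaf paddy plants or 2–18 cm postemergence plants (1 to 4 leaves) with formulated chemical, researchers kept them in a greenhouse for 13–15 days. Effects were judged visually versus controls: 0 indicates none, 100 total control.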

rice [3] = test: Test B flooded paddy test; type: in vivo, Oryza sativa; conditions: 1000 g ai/ha, visual rating, scale 0 to 100 (0 no effect, 100 complete control), 13 to 15 days
In short: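 Read-out: visual comparison with controls, scored 0 to 100, where 100 means complete control and 0 no effect. Formulated chemicals were applied postemergence to plants 2–18 cm tall (1- to 4-leaf), or to flooded-paddy plants at the 2-leaf stage, then held 13 to 15 days under glass.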

rice [4] = test: Test C flooded paddy test; type: in vivo, Oryza sativa
In short: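 Injury scored visually against controls on a 0 (no effect) to 100 (complete control) scale, 12 to 14 days after treatment in greenhouse. Flooded paddy plants treated at 2-leaf stage; postemergence plants at 1- to 4-leaf stage, 2 to 18 cm tall.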

wheat = test: Test B postemergence herbicide test; type: in vivo, Triticum aestivum; set-up: key to Wheat plant response rating: 0 = no effect, 100 = complete control; conditions: postemergence, visual rating, scale 0 (no effect) to 100 (complete control)
In short: as §2

giant foxtail = test: Test B pre-/postemergence herbicide test; type: in vivo, Setaria faberi; conditions: for Foxtail, Giant plant response rating: postemergence, scale 0 (no effect) to 100 (complete control)
In short: (§3)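 Visual rating, 0 (no effect) to 100 (complete control), versus untreated controls after 13–15 d in greenhouse. Pre- and postemergence applications (postemergence plants 2–18 cm, 1–4 leaves); flooded paddy arm at 2-leaf stage. Compounds in non-phytotoxic solvent plus surfactant.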

pigweed = test: Test B pre-/postemergence herbicide test; type: in vivo, Amaranthus retroflexus; conditions: for Pigweed plant response rating: postemergence, scale 0 (no effect) to 100 (complete control)
In short: as §3

cocklebur = test: Test B pre-/postemergence herbicide test; type: in vivo, Xanthium strumarium; conditions: for Cocklebur plant response rating: postemergence, scale 0 (no effect) to 100 (complete control)
In short: as §1

corn = test: Test B pre-/postemergence herbicide test; type: in vivo, Zea mays; conditions: for Corn plant response rating: postemergence, scale 0 (no effect) to 100 (complete control)
In short: as §3

barnyardgrass [5] = test: Test B pre-/postemergence herbicide test; type: in vivo, Echinochloa crus-galli; conditions: for Barnyardgrass plant response rating: postemergence, scale 0 (no effect) to 100 (complete control)
In short: as §1

velvetleaf = test: Test B pre-/postemergence herbicide test; type: in vivo, Abutilon theophrasti; conditions: for Velvetleaf plant response rating: postemergence, scale 0 (no effect) to 100 (complete control)
In short: as §3

[6] = tested on: small flower umbrella sedge; test: Test B flooded paddy test; type: in vivo, Cyperus difformis; conditions: 1000 g ai/ha, visual rating, scale 0 to 100 (0 no effect, 100 complete control), 13 to 15 days
In short: (§4)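 Formulated test chemicals went onto postemergence plants measuring 2 to 18 cm, at one to four leaves. For the paddy assay, species had reached two leaves. Scoring took place 13–15 days later by eye, relative to untreated plants, using 0 for no effect up to 100 for full control.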

blackgrass = test: Test B postemergence herbicide test; type: in vivo, Alopecurus myosuroides; conditions: postemergence, visual rating, scale 0 (no effect) to 100 (complete control)
In short: as §4

Surinam grass = test: Test B pre-/postemergence herbicide test; type: in vivo, Urochloa decumbens; conditions: for Surinam Grass plant response rating: postemergence, scale 0 (no effect) to 100 (complete control)
In short: as §3

large crabgrass = test: Test B pre-/postemergence herbicide test; type: in vivo, Digitaria sanguinalis; conditions: for Crabgrass, Large plant response rating: postemergence, scale 0 (no effect) to 100 (complete control)
In short: as §3

ducksalad [7] = test: Test B flooded paddy test; type: in vivo, Heteranthera limosa; conditions: 1000 g ai/ha, visual rating, scale 0 to 100 (0 no effect, 100 complete control), 13 to 15 days
In short: as §4

ducksalad [8] = test: Test C flooded paddy test; type: in vivo, Heteranthera limosa
rice [9] = test: Test B pre-/postemergence herbicide test; type: in vivo, Oryza sativa; conditions: 0 = no effect, 100 = complete control, preemergence
In short: as §3

barnyardgrass [10] = test: Test B flooded paddy test; type: in vivo, Echinochloa crus-galli; conditions: 1000 g ai/ha, visual rating, scale 0 to 100 (0 no effect, 100 complete control), 13 to 15 days
In short: as §4

lambsquarters = test: Test B pre-/postemergence herbicide test; type: in vivo, Chenopodium album; conditions: visual rating; for Lambsquarters plant response rating: postemergence, scale 0 (no effect) to 100 (complete control)
In short: as §3

[11] = 125 g ai/ha, 0 = no effect, 100 = complete control, preemergence
[12] = 500 g ai/ha, visual rating, 0 = no effect, 100 = complete control, preemergence
[13] = 62 g ai/ha, scale 0 to 100 (0 no effect, 100 complete control)
[14] = 125 g ai/ha, scale 0 to 100 (0 no effect, 100 complete control)
[15] = 250 g ai/ha, scale of 0 to 100, 0 is no effect, 100 is complete control
[16] = 500 g ai/ha, visual rating after 12 to 14 days, scale 0 to 100 (0 no effect, 100 complete control)

CCNC(=O)c1ccc(F)c(NC(=O)c2sc(C(C)(C)C)nc2CC)c1 [Compound 226]
Morningglory plant response rating (0 to 100 scale) (morningglory; [11]): 0 | Plant response rating, Morningglory (morningglory; [12]): 10 | Morningglory plant response rating (morningglory; 125 g ai/ha, visual rating): 30 | Morningglory plant response rating (morningglory; 500 g ai/ha, visual rating): 80 | Barnyardgrass plant response rating (barnyardgrass [1]; [13]): 0 | Barnyardgrass plant response rating (barnyardgrass [1]; [14]): 0 | Barnyardgrass plant response rating (barnyardgrass [1]; [15]): 50 | Plant response rating, Barnyardgrass (barnyardgrass [1]; [16]): 60 | Sedge, Umbrella plant response rating [2, 13]: 10 | Sedge, Umbrella plant response rating [2, 14]: 10 | Sedge, Umbrella plant response rating [2, 15]: 40 | Plant response rating, Sedge, Umbrella [2, 16]: 70 | Oat, Wild plant response rating (wild oat; 125 g ai/ha): 30 | Oat, Wild plant response rating (wild oat; 500 g ai/ha): 30 | Rice plant response rating (rice [3]): 80 | Rice plant response rating (rice [4]; [13]): 0 | Rice plant response rating (rice [4]; [14]): 25 | Rice plant response rating (rice [4]; [15]): 45 | Plant response rating, Rice (rice [4]; [16]): 70 | Wheat plant response rating (wheat; 125 g ai/ha): 20 | Wheat plant response rating (wheat; 500 g ai/ha): 30 | Foxtail, Giant plant response rating (0 to 100 scale) (giant foxtail; [11]): 20 | Plant response rating, Foxtail, Giant (giant foxtail; [12]): 70 | Foxtail, Giant plant response rating (giant foxtail; 125 g ai/ha, visual rating): 20 | Foxtail, Giant plant response rating (giant foxtail; 500 g ai/ha, visual rating): 20 | Pigweed plant response rating (0 to 100 scale) (pigweed; [11]): 40 | Plant response rating, Pigweed (pigweed; [12]): 70 | Pigweed plant response rating (pigweed; 125 g ai/ha, visual rating): 30 | Pigweed plant response rating (pigweed; 500 g ai/ha, visual rating): 60 | Cocklebur plant response rating (0 to 100 scale) (cocklebur; [11]): 0 | Plant response rating, Cocklebur (cocklebur; [12]): 0 | Cocklebur plant response rating (cocklebur; 125 g ai/ha, visual rating): 10 | Cocklebur plant response rating (cocklebur; 500 g ai/ha, visual rating): 20 | Corn plant response rating (0 to 100 scale) (corn; [11]): 0 | Plant response rating, Corn (corn; [12]): 20 | Corn plant response rating (corn; 125 g ai/ha, visual rating): 10 | Corn plant response rating (corn; 500 g ai/ha, visual rating): 40 | Barnyardgrass plant response rating (0 to 100 scale) (barnyardgrass [5]; [11]): 10 | Plant response rating, Barnyardgrass (barnyardgrass [5]; [12]): 60 | Barnyardgrass plant response rating (barnyardgrass [5]; 125 g ai/ha, visual rating): 10 | Barnyardgrass plant response rating (barnyardgrass [5]; 500 g ai/ha, visual rating): 20 | Velvetleaf plant response rating (0 to 100 scale) (velvetleaf; [11]): 10 | Plant response rating, Velvetleaf (velvetleaf; [12]): 50 | Velvetleaf plant response rating (velvetleaf; 125 g ai/ha, visual rating): 20 | Velvetleaf plant response rating (velvetleaf; 500 g ai/ha, visual rating): 20 | Sedge, Umbrella plant response rating [6]: 80 | Blackgrass plant response rating (blackgrass; 125 g ai/ha): 20 | Blackgrass plant response rating (blackgrass; 500 g ai/ha): 20 | Surinam Grass plant response rating (0 to 100 scale) (Surinam grass; [11]): 10 | Plant response rating, Surinam Grass (Surinam grass; [12]): 40 | Surinam Grass plant response rating (Surinam grass; 125 g ai/ha, visual rating): 10 | Surinam Grass plant response rating (Surinam grass; 500 g ai/ha, visual rating): 20 | Crabgrass, Large plant response rating (0 to 100 scale) (large crabgrass; [11]): 20 | Plant response rating, Crabgrass, Large (large crabgrass; [12]): 100 | Crabgrass, Large plant response rating (large crabgrass; 125 g ai/ha, visual rating): 20 | Crabgrass, Large plant response rating (large crabgrass; 500 g ai/ha, visual rating): 20 | Ducksalad plant response rating (ducksalad [7]): 70 | Ducksalad plant response rating (ducksalad [8]; [13]): 0 | Ducksalad plant response rating (ducksalad [8]; [14]): 0 | Ducksalad plant response rating (ducksalad [8]; [15]): 40 | Plant response rating, Ducksalad (ducksalad [8]; [16]): 65 | Rice plant response rating (0 to 100 scale) (rice [9]; 125 g ai/ha): 20 | Plant response rating, Rice (rice [9]; 500 g ai/ha, visual rating): 30 | Barnyardgrass plant response rating (barnyardgrass [10]): 80 | Plant response rating, Lambsquarters (lambsquarters; 500 g ai/ha, 0 = no effect, 100 = complete control, preemergence): 90 | Lambsquarters plant response rating (lambsquarters; 125 g ai/ha): 40 | Lambsquarters plant response rating (lambsquarters; 500 g ai/ha): 60
